Experimental data from article PMC7251097, “Aspartate/asparagine-β-hydroxylase: a high-throughput mass spectrometric assay for discovery of small molecule inhibitors” (Scientific Reports, 2020).
“And” between values parts separate entries of the source, which are not always exact repeats. Equal values may be shown once. Read-outs that look alike come from different tables or passages of the source.

Legend:
His6-AspH315-758 (AspH) = target: T1, His6-AspH315-758 (AspH) (Homo sapiens, UniProt Q12797); assay: Differential scanning fluorimetry (DSF) assay, shift of AspH melting temperature; assay type: binding; conditions: 20 μM inhibitor, 2 μM AspH, 50 μM NiCl2, with respect to DMSO controls, n = 2, mean ± SD; for ΔTm at 20 µM: read-out: Tm-shift (ΔTm) of AspH melting temperature [°C]
T1 construct: freshly thawed His6-AspH315-758 was added; made in house; host or cells: E. coli BL21 (DE3), pET-28a(+) vector
T1 sequence (Q12797 315-758): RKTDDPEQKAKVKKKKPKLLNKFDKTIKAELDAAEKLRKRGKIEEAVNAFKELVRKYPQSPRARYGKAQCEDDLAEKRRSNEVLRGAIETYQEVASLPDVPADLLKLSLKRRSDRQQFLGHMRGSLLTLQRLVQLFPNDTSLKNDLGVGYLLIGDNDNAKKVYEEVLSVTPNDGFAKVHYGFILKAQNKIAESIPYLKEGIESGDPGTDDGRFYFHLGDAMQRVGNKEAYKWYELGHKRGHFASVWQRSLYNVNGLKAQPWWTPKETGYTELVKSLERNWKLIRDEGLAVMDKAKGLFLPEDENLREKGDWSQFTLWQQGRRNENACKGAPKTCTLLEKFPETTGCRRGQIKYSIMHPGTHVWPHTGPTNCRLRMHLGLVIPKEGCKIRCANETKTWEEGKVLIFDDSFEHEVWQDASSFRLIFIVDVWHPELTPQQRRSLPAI

[1] = target: T2, His6-AspH315–758 (human aspartate/asparagine-β-hydroxylase, AspH) (Homo sapiens, UniProt Q12797); assay: SPE-MS AspH inhibition assay (LOPAC screen at fixed 20 μM and IC50 dose-response), hydroxylation of cyclic peptide hFX-CP101–119; assay type: biochemical
T2 construct: N-Terminally His6-tagged human AspH315–758 (His6-AspH315–758) was produced in E. coli BL21 (DE3) cells; made in house; host or cells: E. coli BL21 (DE3), pET-28a(+) vector
T2 sequence (Q12797 315-758): T1 sequence (Q12797 315-758)

KDM4E = conditions: read-out: IC50 metal ion, KDM4E, cited from earlier work
PHD2 = conditions: read-out: IC50 metal ion, PHD2, cited from earlier work
FIH = conditions: read-out: IC50 metal ion, FIH [μM] (Ki values are shown), cited from earlier work
KDM4A = conditions: read-out: IC50 metal ion, KDM4A, cited from earlier work
TauD = conditions: read-out: IC50 metal ion, TauD; cited from earlier work
[2] = LOPAC Plate 4, compound at 20 uM, substrate conversion
[3] = 50 nM AspH, 2.0 μM Fe(II), Zn(OAc)2, NiSO4, CoCl2, MnCl2, CaCl2 as metal sources, n = 2, mean ± SD, read-out: IC50 metal ion, AspH
[4] = 5 μM Fe(II), Ki values are shown
[5] = 50 nM His6-AspH315–758, 1.0 μM hFX-CP101–119, 3 μM 2OG, 2 μM Fe(II), 50 mM HEPES pH 7.5, 20 °C, mean ± SD, n = 2 (2,4-PDCA n = 10), read-out: IC50
[6] = LOPAC Plate 4, compound at 20 uM
[7] = LOPAC compound at fixed 20 uM, plate 1, normalised to DMSO and 2,4-PDCA controls
[8] = LOPAC compound at fixed 20 uM, substrate conversion, plate 1
[9] = LOPAC compound at 20uM, plate 3, conversion of substrate peptide

Compound `O=C(O)c1ccnc(C(=O)O)c1` [2,4-PDCA, pyridine-2,4-dicarboxylic acid] has a ΔTm at 20 µM (His6-AspH315-758 (AspH)) of 3.5 ± 0.6 °C.
With `CCOc1nc2cccc(C(=O)OC(C)OC(=O)OC3CCCCC3)c2n1Cc1ccc(-c2ccccc2-c2nnn[nH]2)cc1` (centres unmarked) [Candesartan cilexetil, reference compound] the inhibition at 20 µM ([1]; AspH activity, fixed compound concentration 20 μM, initial LOPAC screen, 0.5%v/v DMSO, read-out: Inhibition at 20 µM [%]) was 100%, the “% conversion” value [1, 2] was 2.30% and the “Tm-shift (ΔTm) of AspH melting temperature [°C]” value (“Tm-shift (ΔTm)” for short) (His6-AspH315-758 (AspH)) was less than 0.3 °C. For the same compound, the ΔTm at 20 µM (His6-AspH315-758 (AspH)) was 0.2 ± 0.1 °C.
In the case of `O=C(O)c1ccc(O)c2ncccc12` [IOX1], the “Tm-shift (ΔTm)” value (His6-AspH315-758 (AspH)) is reported as 2.8 ± 0.2 °C and ~ 2.8 °C.
For `[Cl][Mn][Cl]` [Mn(II), MnCl2], the IC50 (KDM4E; 2 μM KDM4 and 10 μM Fe(II)) is listed as 224 µM, the IC50 [1, 3] is listed as 5.06 ± 1.02 µM and the “Reduction of AspH inhibition compared to Zn(II)” value ([1]; ratio of IC50 values against AspH, Table 2) is listed as “approximately 100 fold”. For the same compound, the IC50 (PHD2; 2 μM PHD2 and 20 μM Fe(II)) was 21 µM, the Ki (FIH; [4]) was 10 ± 1 µM and the IC50 (KDM4A; 2 μM KDM4 and 10 μM Fe(II)) was 101 µM.
In the case of `O=C(O)CNC(=O)C(=O)O` [NOG, N-oxalylglycine, reference compound], the IC50 [1, 5] is reported as 1.09 ± 0.29 µM and the ΔTm at 20 µM (His6-AspH315-758 (AspH)) is reported as 2.8 ± 0.3 °C.
In the case of `O=S(=O)([O-])[O-].[Ni+2]` [Ni(II), NiSO4], the IC50 (KDM4E) is listed as 15.6 µM, the IC50 ([1]; read-out: IC50 metal ion, AspH) is listed as 0.17 ± 0.08 µM and the IC50 (TauD) is listed as 0.6 to 1 µM. For the same compound, the IC50 (PHD2) was 185 µM, the Ki (FIH) was 4 ± 1 µM and the IC50 (KDM4A) was 9.4 µM.
For `Cc1ccc(-n2sc3ccccc3c2=O)cc1` [PBIT, 2-(4-methylphenyl)-1,2-benzisothiazol-3(2 H)-one, reference compound], the IC50 [1, 5] was 0.14 ± 0.02 µM and the “Tm-shift (ΔTm)” value (His6-AspH315-758 (AspH)) was -15.2 ± 1.4 °C and ~ −15.2 °C.
In the case of `CC(=O)[O-].CC(=O)[O-].[Zn+2]` [Zn(II), Zn(OAc)2], the IC50 (KDM4E; 2 μM KDM4 and 10 μM Fe(II)) is given as 13 µM, the IC50 [1, 3] is given as ~0.05 µM and 0.05 µM and the IC50 (PHD2; 2 μM PHD2 and 20 μM Fe(II)) is given as 9.3 µM. For the same compound, the Ki (FIH; [4]) was 0.5 ± 0.1 µM and the IC50 (KDM4A; 2 μM KDM4 and 10 μM Fe(II)) was 7.8 µM.
For CoCl2 [Co(II)], the IC50 (KDM4E) is given as 9.4 µM, the IC50 ([1]; read-out: IC50 metal ion, AspH) is given as 0.39 ± 0.13 µM and the IC50 (TauD) is given as 1 to 3.5 µM. The IC50 (PHD2) was 48.3 µM, the Ki (FIH) was 1 ± 0.4 µM and the IC50 (KDM4A) was 5.7 µM.
In the case of Maraviroc, the “Plate 1 (% conversion)” value [1] is reported as 50.71%, the “Plate 1 (% inhibition)” value [1] is reported as -44.18% and the “Plate 5 (% conversion)” value [1] is reported as 49.04%. For the same compound, the “Plate 5 (% inhibition)” value [1] was -37.39%.
With PD-184161 the “% inhibition” value [1, 6] was 6.57%, the “% conversion” value [1, 2] was 34.23% and the “Plate 5 (% inhibition)” value ([1]; plate 5 (Pfitzer), test compounds at fixed 20 μM) was 40.35%. The “Plate 5 (% conversion)” value ([1]; plate 5 (Pfitzer), test compounds at fixed 20 μM, mean conversion DMSO 32.88) was 22.58%.
With “Phenylbenzene-omega-phosphono-alpha-amino acid” the “% conversion” value [1] was 25.21%.
With Picrotoxin the “Plate 3 (% conversion)” value [1] was 36.08%.
In the case of Rhodblock 6, the “Plate 1 (% inhibition)” value [1, 7] is reported as -3.70% and the “Plate 1 (% conversion)” value [1, 8] is reported as 37.11%.
For Ro 8-4304, the “% inhibition” value [1, 6] was -13.60% and the “% conversion” value [1, 2] was 41.11%.
In the case of Ro 20-1724, the “Plate 1 (% inhibition)” value [1, 7] is reported as -0.20% and the “Plate 1 (% conversion)” value [1, 8] is reported as 35.94%.
In the case of Ro 61-8048, the “Plate 3 (% conversion)” value [1, 9] is reported as 30.86%.
In the case of Ro 90-7501, the “Plate 3 (% conversion)” value [1, 9] is reported as 39.97%.
In the case of trans-(±)-ACPD, the “Plate 1 (% conversion)” value [1] is reported as 37.46% and the “Plate 1 (% inhibition)” value [1] is reported as -4.72%.
